According to patent US20240199997A1, “COMPOSITIONS COMPRISING A META-(C1-C4 ALKOXY) […]” (The Procter & Gamble Company, priority 2022, published 2024):
Where two headings read alike, the source gives them in different places.

Tests used:
[1] = Headspace Method (dynamic headspace GC/MS), solution in isopropyl myristate (IPM); type: physicochemical; details: for Air/IPM partition coef (ng/mL in air per ng/mL in IPM) / Headspace: 30° C.; for Headspace: above IPM solution of about 2.1E+06 ng/mL
Protocol: (§1) Perfume headspace data is collected for various materials according to the method provided below.
(§2) The partition coefficients are calculated by determining the amount of PRM in the headspace above a solution with a known concentration using a GC/FID-MS (Agilent 7890 and 5977A MSD) with a thermal desorption unit (Gerstel MPS2) and Dynamic Headspace Sampler (Gerstel DHS). This technique allows for automated headspace collections using the MultiPurposeSampler (MPS). The PRMs of interest are prepared at a known concentration in isopropyl myristate (IPM) or propylene glycol monomethyl ether (DPM), and 1 mL is pipetted in a 20 mL headspace vial.
(§3) DHS Conditions: The sample is tempered in the unit at 30° C. A helium stream at 10 mls/min purges 20 mL of headspace containing the analytes above the sample onto the sorbent tube (TDU) containing 25 mg of TenaxTA 35/60 (Restek cat #25701).
(§4) TDU conditions: The sorbent tube is desorbed with a program starting at 30° C. solvent vent for 2 min then ramped at 720° C./min to 270° C. and held for 8 min. The analytes are refocused on a glass bead liner at −60° C. then desorbed at a rate of 12° C./s to 270° C. onto the GC column.
(§5) GC/MS conditions: Agilent 122-5532UI column of 30 m×250 μm×0.25 μm and a flow rate of 1.5mL/min is utilized. A temperature program of 50° C. to 280° C. with a 2 min hold and a ramp rate of 12° C./min is suitable. Scan or SIM mode MSD parameters with a solvent delay for the DPM are applied to achieve appropriate detection.
(§6) Analytical standards can be obtained from Sigma Aldrich, St. Louis, MO and BioSynth, UK. A stock solution is prepared at approximately 0.5 g/L. The stock solution is then diluted to 4 to 5 concentrations ranging from approximately 0.05 g/L to 0.00005 g/L. These standard solutions are then analyzed by GC/MS. This analysis is performed by using the same TDU desorption and GC/MS conditions described above with a 1 uL liquid injection onto the TDU tube instead of the DHS collection. The amount injected on column and the area responses of the target m/z are utilized to create a calibration plot with a linear fit.
(§7) Quantification of the headspace is performed by the PRM target m/z area response of the perfume component and the linear equation of the calibration plot.
(§8) Perfume headspace data is collected for various materials according to the Headspace Method provided above in the Test Methods section. The Air/Solvent partition coefficients are determined and indexed accordingly (e.g., where the partition coefficient for ethylvanillin is set at 1.00).

[2] = Headspace Method (dynamic headspace GC/MS), solution in propylene glycol monomethyl ether (DPM); type: physicochemical; details: for Air/DPM partition coef (ng/mL in air per ng/mL in DPM) / Headspace: 30° C.; for Headspace: above DPM solution of 1.1E+07 ng/mL
Protocol: as §1, §2, §3, §4, §5, §6, §7, §8

SMILES: CCOc1cc(C=O)ccc1O [Ethylvanillin]
- Air/IPM partition coef (ng/mL in air per ng/mL in IPM) ([1]; average of two replicates): 1.95E−08 ng/mL in air per ng/mL in IPM
- Headspace ([1]; average of two replicates): 0.0402 ng/mL
- Ethylvanillin Indexed Air/IPM partition coefficient ([1]; partition coefficient for ethylvanillin set at 1.00, average of two replicates): 1.00
- Air/DPM partition coef (ng/mL in air per ng/mL in DPM) ([2]; average of three replicates): 2.45E−09 ng/mL in air per ng/mL in DPM
- Headspace ([2]; average of three replicates): 0.0262 ng/mL
- Ethylvanillin Indexed Air/DPM partition coefficient ([2]; partition coefficient for ethylvanillin set at 1.00, average of three replicates): 1.00

SMILES: COc1cc(C=O)ccc1O [Vanillin]
- Ethylvanillin Indexed Air/IPM partition coefficient [1]: 1.40
- Air/IPM partition coef (ng/mL in air per ng/mL in IPM) ([1]; average of two replicates): 2.73E−08 ng/mL in air per ng/mL in IPM
- Headspace ([1]; average of two replicates): 0.0563 ng/mL
- Air/DPM partition coef (ng/mL in air per ng/mL in DPM) ([2]; average of three replicates): 1.21E−08 ng/mL in air per ng/mL in DPM
- Headspace ([2]; average of three replicates): 0.1288 ng/mL

SMILES: CCOc1cccc(C=O)c1O [ortho-Ethylvanillin, 2-hydroxy-3-ethoxybenzaldehyde]
- Air/IPM partition coef (ng/mL in air per ng/mL in IPM) ([1]; average of two replicates): 1.21E−07 ng/mL in air per ng/mL in IPM
- Headspace ([1]; average of two replicates): 0.2521 ng/mL
- goes into the headspace more than its structural isomer ethylvanillin ([1]; out of IPM): about 6.2 ×
- Air/DPM partition coef (ng/mL in air per ng/mL in DPM) ([2]; average of three replicates): 2.31E−07 ng/mL in air per ng/mL in DPM
- Headspace ([2]; average of three replicates): 2.4678 ng/mL
- goes into the headspace more than ethylvanillin ([2]; out of DPM): about 94 ×
